Measured values published in patent US20260345803A1, “An Integrin Alpha10 Antibody Drug Conjugate” (Targinta AB, priority 2022, published 2026).

Key:
A204 = assay: In vitro cytotoxicity (WST-1), A204; type: cell-based; conditions: monolayer, 5 days
Description: (§1) • Aim: To evaluate the in vitro efficacy of Th-Ab12-ADC in different cell lines. Material and Methods: Cells were seeded either as monolayer (C2C12alpha10, C2C12alpha11 and A204) or as spheres (BT549, Hs578T, U3046MG, U3054MG and SJSA-1) and treated with the IgG1 isotype control Ctrl-ADC or Th-Ab12-ADC at different concentrations ([…]) for 5 days (C2C12alpha10, C2C12alpha11, A204 and SJSA-1) or 10 days (BT549, Hs578T, U3046MG and U3054MG). On the day of termination, the cells were incubated for 3-4 hours with WST-1, which measures the viable cells, and the plates were read at OD450 nm wavelength via SpectraMax. The dose response curves and IC50 values were generated in GraphPad Prism 9. The WST-1 assay is based on the cleavage of tetrazolium salt WST-1 for formazan by cellular mitochondrial dehydrogenases. […] The differences in IC50 values between control ADC and Th-Ab12-ADC supports a relatively large therapeutic window for each cell line (Table 3).

C2C12alpha10 = assay: In vitro cytotoxicity (WST-1), C2C12alpha10; type: cell-based, mouse; conditions: monolayer, 5 days
Description: as §1

BT549 = assay: In vitro cytotoxicity (WST-1), BT549; type: cell-based; conditions: spheres, 10 days
Description: as §1

U3054MG = assay: In vitro cytotoxicity (WST-1), U3054MG; type: cell-based, human; conditions: spheres, 10 days
Description: as §1

C2C12alpha11 = assay: In vitro cytotoxicity (WST-1), C2C12alpha11; type: cell-based, mouse; conditions: monolayer, 5 days
Description: as §1

Hs578T = assay: In vitro cytotoxicity (WST-1), Hs578T; type: cell-based; conditions: spheres, 10 days
Description: as §1

SJSA-1 = assay: In vitro cytotoxicity (WST-1), SJSA-1; type: cell-based; conditions: spheres, 5 days
Description: as §1

U3046MG = assay: In vitro cytotoxicity (WST-1), U3046MG; type: cell-based, human; conditions: spheres, 10 days
Description: as §1

[1] = target: T1, integrin alpha11 (C2C12alpha11 cells) (human, UniProt Q9UKX5); assay: FACS, C2C12alpha11 cells
T1 chain: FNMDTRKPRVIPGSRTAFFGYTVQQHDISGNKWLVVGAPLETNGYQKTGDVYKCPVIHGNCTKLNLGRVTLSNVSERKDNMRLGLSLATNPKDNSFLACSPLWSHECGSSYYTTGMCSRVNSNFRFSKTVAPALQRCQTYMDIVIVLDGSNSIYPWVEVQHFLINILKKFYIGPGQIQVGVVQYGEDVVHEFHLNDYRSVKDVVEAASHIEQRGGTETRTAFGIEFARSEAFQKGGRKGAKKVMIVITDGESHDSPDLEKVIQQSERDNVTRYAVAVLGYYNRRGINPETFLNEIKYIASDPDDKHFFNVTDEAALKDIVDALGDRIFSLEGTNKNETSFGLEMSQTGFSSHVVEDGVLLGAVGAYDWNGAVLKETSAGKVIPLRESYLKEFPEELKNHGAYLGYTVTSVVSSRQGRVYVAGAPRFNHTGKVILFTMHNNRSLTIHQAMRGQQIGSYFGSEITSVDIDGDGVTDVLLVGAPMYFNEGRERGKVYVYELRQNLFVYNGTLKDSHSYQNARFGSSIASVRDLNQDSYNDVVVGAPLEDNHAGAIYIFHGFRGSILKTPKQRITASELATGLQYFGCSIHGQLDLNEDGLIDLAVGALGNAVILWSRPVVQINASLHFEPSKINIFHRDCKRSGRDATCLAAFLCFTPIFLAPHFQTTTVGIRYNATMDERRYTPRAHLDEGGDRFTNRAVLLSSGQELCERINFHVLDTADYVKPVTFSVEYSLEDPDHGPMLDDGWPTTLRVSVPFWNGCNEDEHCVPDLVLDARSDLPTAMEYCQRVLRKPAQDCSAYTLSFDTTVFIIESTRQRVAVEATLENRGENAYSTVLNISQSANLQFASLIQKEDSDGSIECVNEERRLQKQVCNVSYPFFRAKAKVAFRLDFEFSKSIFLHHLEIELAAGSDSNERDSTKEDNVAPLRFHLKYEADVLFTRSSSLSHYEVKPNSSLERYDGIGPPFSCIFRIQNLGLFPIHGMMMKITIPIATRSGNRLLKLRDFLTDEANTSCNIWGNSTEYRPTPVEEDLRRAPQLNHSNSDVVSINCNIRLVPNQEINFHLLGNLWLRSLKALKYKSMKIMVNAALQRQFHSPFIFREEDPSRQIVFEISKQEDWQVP

[2] = target: T2, integrin alpha10 (alpha10beta1, cell-expressed) (human, UniProt O75578); assay: FACS, upper end of range 0.9-2.69 nM over seven cell lines
T2 chain: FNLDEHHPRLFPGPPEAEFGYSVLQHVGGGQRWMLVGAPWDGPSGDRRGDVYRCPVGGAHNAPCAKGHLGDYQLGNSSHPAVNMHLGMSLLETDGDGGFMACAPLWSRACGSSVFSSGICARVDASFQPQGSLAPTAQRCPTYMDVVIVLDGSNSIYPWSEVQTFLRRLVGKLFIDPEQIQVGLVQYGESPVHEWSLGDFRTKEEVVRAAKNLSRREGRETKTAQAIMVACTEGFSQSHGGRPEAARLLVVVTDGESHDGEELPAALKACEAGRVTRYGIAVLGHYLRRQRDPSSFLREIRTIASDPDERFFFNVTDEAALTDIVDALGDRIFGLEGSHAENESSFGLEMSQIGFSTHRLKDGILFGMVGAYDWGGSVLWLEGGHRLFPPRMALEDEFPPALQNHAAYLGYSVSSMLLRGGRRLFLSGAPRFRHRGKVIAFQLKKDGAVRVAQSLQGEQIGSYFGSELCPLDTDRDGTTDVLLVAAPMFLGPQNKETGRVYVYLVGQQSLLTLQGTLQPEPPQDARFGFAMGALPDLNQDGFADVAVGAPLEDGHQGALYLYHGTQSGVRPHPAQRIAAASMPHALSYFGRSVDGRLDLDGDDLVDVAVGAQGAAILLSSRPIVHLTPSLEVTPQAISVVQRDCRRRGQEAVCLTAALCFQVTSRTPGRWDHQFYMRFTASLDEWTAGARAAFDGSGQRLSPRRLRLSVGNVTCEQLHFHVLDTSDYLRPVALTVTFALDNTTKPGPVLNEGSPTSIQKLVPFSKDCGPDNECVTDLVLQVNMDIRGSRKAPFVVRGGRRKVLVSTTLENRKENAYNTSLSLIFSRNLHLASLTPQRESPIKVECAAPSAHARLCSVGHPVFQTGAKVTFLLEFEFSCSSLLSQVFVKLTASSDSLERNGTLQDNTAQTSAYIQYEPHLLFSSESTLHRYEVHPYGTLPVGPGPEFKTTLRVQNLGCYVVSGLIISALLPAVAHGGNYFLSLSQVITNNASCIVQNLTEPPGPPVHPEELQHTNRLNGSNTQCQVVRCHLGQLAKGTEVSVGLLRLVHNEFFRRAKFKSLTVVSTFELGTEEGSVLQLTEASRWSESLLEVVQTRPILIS

[3] = target: T2, integrin alpha10 (alpha10beta1, …); assay: FACS, lower end of range 0.9-2.69 nM over seven cell lines

For COc1cccc2c1C(=O)c1c(O)c3c(c(O)c1C2=O)CC(O)(C(=O)CO)CC3OC1CC2C(OC3C(OC)OCCN23)C(C)O1 [PNU-159682, 3′-deamino-3″-4′-anhydro-[2″(S)-methoxy-3″(R)-hydroxy-4″-morpholinyl]doxorubicin], the IC50 (A204) was 0.023 nM, the IC50 (C2C12alpha10) was 0.027 nM and the IC50 (BT549) was 1.4 nM. For the same molecule, the IC50 (U3054MG) was 0.145 nM, the IC50 (C2C12alpha11) was 0.018 nM and the IC50 (Hs578T) was 0.981 nM. For the same molecule, the IC50 (SJSA-1) was 0.077 nM and the IC50 (U3046MG) was 0.077 nM.

B1: Th-Ab15 (antibody, V domains shown)
VH: QVQLVQSGAEVKKPGASVKVSCKTSGYTFTEYYVIWVRQAPGQGLEWLGWIFPGSGRTYYSEKFRGRATITVDKSTSTAYMELSSLRSEDTAVYYCARDNYGSSGKFFAYWGQGTLVTVSS
VL: DVVMTQSPLSLPVTLGQPASISCRSSQSLVHSNGNTYLHWYQQKPGQPPKLLIYKVSNRFSGVPDRFSGSGSGTDFTLKISRVEAEDVGVYYCSQSTHVPYTFGQGTKLEIK
B1: no binding [1].

B2: Th-Ab12-ADC (antibody, V domains shown)
VH: QVQLVQSGAEVKKPGASVKVSCKTSGYTFTEYYIIWVRQAPGQGLEWLGWIFPGSGRTYYSEKFRGRVTITADKSTSTAYMELSSLRSEDTAVYYCARDNYGSSGKFFAYWGQGTLVTVSS
VL: DVVMTQSPLSLPVTLGQPASISCRSSQSLVHSNGNTYLHWYQQKPGQPPKLLIYKVSNRFSGVPDRFSGSGSGTDFTLKISRVEAEDVGVYYCSQSTHVPYTFGQGTKLEIK
modifications: ADC, conjugated to PNU-159682-type payload; constant regions SEQ21 (heavy) and SEQ20 (light)
For B2, the EC50 [2] was under 2.69 nM, the EC50 [3] was over 0.9 nM and the binding result [1] was “no binding”.

B3: Th-Ab9 (antibody, V domains shown)
VH: QVQLVQSGAEVKKPGASVKVSCKTSGYTFTEYYIIWVRQAPGQGLEWLGWIFPGSGRTYYSEKFRGRATITVDKSTSTAYMELSSLRSEDTAVYYCARDNYGSSGKFFAYWGQGTLVTVSS
VL: DVVMTQSPLSLPVTLGQPASISCRSSQSLVHSNGNTYLHWYQQKPGQPPKLLIYKVSNRFSGVPDRFSGSGSGTDFTLKISRVEAEDVGVYYCSQSTHVPYTFGQGTKLEIK
B3: no binding [1].

B4: Th-Ab11 (antibody, V domains shown)
VH: QVQLVQSGAEVKKPGASVKVSCKTSGYTFTEYYIIWVRQAPGQGLEWLGWIFPGSGRTYYSEKFRGRVTITADKSTSTAYMELSSLRSEDTAVYYCARDNYGSSGKFFAYWGQGTLVTVSS
VL: DVVMTQSPLSLPVTLGQPASISCRSSQSLVHSNGNTYLHWYQQKPGQPPKLLIYKVSNRFSGVPDRFSGSGSGTDFTLKISRVEAEDVGVYFCSQSTHVPYTFGQGTKLEIK
B4: no binding [1].

B5: Th-Ab12 (antibody, V domains shown)
VH: QVQLVQSGAEVKKPGASVKVSCKTSGYTFTEYYIIWVRQAPGQGLEWLGWIFPGSGRTYYSEKFRGRVTITADKSTSTAYMELSSLRSEDTAVYYCARDNYGSSGKFFAYWGQGTLVTVSS
VL: DVVMTQSPLSLPVTLGQPASISCRSSQSLVHSNGNTYLHWYQQKPGQPPKLLIYKVSNRFSGVPDRFSGSGSGTDFTLKISRVEAEDVGVYYCSQSTHVPYTFGQGTKLEIK
B5: no binding [1].

B6: Th-Ab14 (antibody, V domains shown)
VH: QVQLVQSGAEVKKPGASVKVSCKTSGYTFTEYYVIWVRQAPGQGLEWLGWIFPGSGRTYYSEKFRGRATITVDKSTSTAYMELSSLRSEDTAVYYCARDNYGSSGKFFAYWGQGTLVTVSS
VL: DVVMTQSPLSLPVTLGQPASISCRSSQSLVHSNGNTYLHWYQQKPGQPPKLLIYKVSNRFSGVPDRFSGSGSGTDFTLKISRVEAEDVGVYFCSQSTHVPYTFGQGTKLEIK
B6: no binding [1].
